This is an account of results in patent US12595231B2 (priority 2022, dated 2026).

A short description of data set [1]: primary salt formation assessment: storage at 40° C./75% RH for ca. 24 h, XRPD. Conditions: solids stored at 40° C./75% RH for ca. 24 h. The format is physicochemical. As for the experimental part:
Solids were dried at 40° C. under vacuum for ca. 24 h, and then re-analysed by XRPD.
Solids were then stored at 40° C./75% RH for ca. 24 h, and then re-analysed by XRPD.

Data set [2] is described as follows: primary salt formation assessment: solution degradation (HPLC of mother liquor). It counts as physicochemical. Conditions: salt formation experiment. As for the experimental part:
HPLC analysis was carried out to determine the chemical purity of the mesembrine and to provide information on any impurities. The following conditions were use: • Column: Waters Acquity BEH 018 1.7 μm 150 mm×2.1 mm • Column Temperature: 33° C. • Autosampler Temperature: 25° C. • UV Wavelength: 280 nm • Injection Volume: 5 μL • Flow Rate: 0.29 mL/min • Mobile Phase A: 0.1% NH4 in H2O • Mobile Phase B: Methanol:Water 20:80% v/v • Gradient Program: […]
The experiments were then temperature cycled between the upper temperature limit (specified in Table 3.1) and 5° C. at 0.1° C./min, with 1 h holds at the upper temperature limit, and 5° C. for ca. 72 h.
After temperature cycling, solids were isolated from experiments at 5° C., and analysed by XRPD.

A short description of data set [3]: DVS analysis (water uptake). The format is physicochemical.
A short description of data set [4]: VH-XRPD analysis (variable humidity). It counts as physicochemical. The conditions noted are these: after 12 h at 90% RH.
A short description of data set [5]: salt hydration study in methanol/water of known water activity. The format is physicochemical. The conditions noted are these: 25° C., 24 h. On the procedure: Approximately 20 mg of the hydrochloride (HCl), besylate and fumarate salts were weighed into 3×2 mL push cap vials. 0.05-0.1 mL of relevant solvent system was added to each vial, at 25° C.
Methanol/water solvent systems (99:1, 75:25, 33:67) of known water activity (aw 0.2, 0.5 and 0.8 respectively) were used. The experiment was stirred for ca. 24 h. After 24 h, any slurries were centrifuged, and the solids analysed by XRPD.
An additional hydration study was required in order to repeat the salt hydration studies, for the HCl salt and the besylate salt due to dissolution in the first set of experiments:
For each salt, approximately 10 mg was weighed into 4×2 mL vials and a stirrer bar added. 10 μL of each solvent system was added, at 25° C. The experiments were stirred for 24 h, and any solids recovered were then analysed by XRPD.

The format of data set [6] is physicochemical. The conditions noted are these: for HPLC Conc.: 25° C., 24 h, with respect to mesembrine; for HPLC Purity: solution/mother liquor. On the procedure:
Approximately 20 mg of each salt was weighed into 3×2 mL push cap vials. 0.1 mL of buffer (Chloride pH 1.2; Acetate pH 4.5; Phosphate pH 6.8) was added to each vial, at 25° C. The experiment was stirred for ca. 24 h. After 2 h, the pH was measured and adjusted if required. After 24 h a final pH measurement was taken. Any slurries were centrifuged and the solids analysed by XRPD.

A short description of the next data set: 1-week stability study. It counts as physicochemical. Conditions: for Observation: Sigma Aldrich colour chart. On the procedure: A 1-week stability study was performed for hydrochloride salt Pattern 1, besylate salt Pattern 1, fumarate salt Pattern 1+4, and fumarate salt Pattern 4.
Approximately 5 mg of the salt was weighed into 3×2 mL push cap vials. The 2 mL vials were then each placed inside a 20 mL vial, with the lids on or off as required. The solids were placed under the required stability conditions for 1 week at the following three conditions: 40° C./75% RH (open); 80° C. (closed); Ambient light, temperature and humidity (open)
After 1-week, visual observations were noted, then the solids were analysed by XRPD and HPLC.

For data set [7] the following is noted: HCl salt, background statement; cited from earlier work.
The next data set addresses 5-HT transporter (Homo sapiens, UniProt P31645). The conditions noted are these: Harvey et al., 2011; cited from earlier work.
The next data set deals with PDE4B (Homo sapiens, UniProt Q07343). Conditions: Harvey et al., 2011; cited from earlier work.
Where [8] appears, read: Ambient light, temperature and humidity, 1 week.

SMILES strings stand for the structures. Read-outs that look alike come from different tables or passages of the source.

Chain of PDE4B (Q07343 whole entry, species assumed): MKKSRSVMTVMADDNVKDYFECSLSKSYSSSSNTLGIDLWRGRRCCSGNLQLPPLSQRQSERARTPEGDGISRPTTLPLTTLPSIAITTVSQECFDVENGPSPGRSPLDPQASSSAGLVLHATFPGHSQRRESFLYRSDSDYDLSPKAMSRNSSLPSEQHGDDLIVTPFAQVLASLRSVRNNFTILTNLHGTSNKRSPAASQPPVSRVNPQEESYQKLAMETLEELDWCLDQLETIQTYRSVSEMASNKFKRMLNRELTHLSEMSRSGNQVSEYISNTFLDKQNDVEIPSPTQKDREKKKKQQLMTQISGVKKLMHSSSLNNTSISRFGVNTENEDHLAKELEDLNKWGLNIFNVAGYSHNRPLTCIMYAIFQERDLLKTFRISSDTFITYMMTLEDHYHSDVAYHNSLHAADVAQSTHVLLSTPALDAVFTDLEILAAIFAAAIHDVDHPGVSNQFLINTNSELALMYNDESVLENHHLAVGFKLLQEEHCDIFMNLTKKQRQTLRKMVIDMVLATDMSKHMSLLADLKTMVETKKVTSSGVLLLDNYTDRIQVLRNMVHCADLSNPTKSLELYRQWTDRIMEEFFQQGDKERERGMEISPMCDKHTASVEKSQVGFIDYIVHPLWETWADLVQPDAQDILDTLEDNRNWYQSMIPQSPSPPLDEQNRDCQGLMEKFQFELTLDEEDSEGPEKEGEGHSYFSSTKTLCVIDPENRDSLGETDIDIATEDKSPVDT
Chain of 5-HT transporter (P31645 whole entry, species assumed): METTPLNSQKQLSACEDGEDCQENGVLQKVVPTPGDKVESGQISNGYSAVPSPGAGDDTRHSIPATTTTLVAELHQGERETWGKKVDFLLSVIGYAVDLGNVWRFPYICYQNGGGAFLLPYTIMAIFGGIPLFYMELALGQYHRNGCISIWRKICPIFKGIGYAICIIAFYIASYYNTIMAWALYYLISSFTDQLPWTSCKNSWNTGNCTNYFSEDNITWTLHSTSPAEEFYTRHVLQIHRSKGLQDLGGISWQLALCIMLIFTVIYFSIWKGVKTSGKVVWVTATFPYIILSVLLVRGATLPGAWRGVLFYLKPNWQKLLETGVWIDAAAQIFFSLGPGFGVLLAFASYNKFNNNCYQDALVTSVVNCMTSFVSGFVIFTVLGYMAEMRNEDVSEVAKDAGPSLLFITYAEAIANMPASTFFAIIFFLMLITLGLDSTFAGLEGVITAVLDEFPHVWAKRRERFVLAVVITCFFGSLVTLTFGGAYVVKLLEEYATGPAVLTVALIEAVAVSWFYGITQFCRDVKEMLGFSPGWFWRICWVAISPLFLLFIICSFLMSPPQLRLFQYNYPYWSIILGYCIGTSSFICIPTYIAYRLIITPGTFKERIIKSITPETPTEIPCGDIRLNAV

On to `COc1ccc(C23CCC(=O)CC2N(C)CC3)cc1OC.Cl` (stereo not drawn) [Hydrochloride Pattern 1, reference compound], for which the “physical stability at 40° C./75% RH (Comments)” value in data set [1] is recorded as “physically stable”. Besides, the “solution degradation (Comments)” value in data set [2] is recorded as “degradation”. Besides, the DVS water uptake in data set [3] (80% RH, 25° C.) came out at 5.4 wt %; in [3] (90% RH), 20.3 wt %. Also, in data set [3] (from DVS water uptake at 80% RH, 25° C.), the hygroscopicity entry is recorded as “hygroscopic”. Also, the “solid form by VH-XRPD” value in data set [4] is on record as “remained consistent with hydrochloride salt Pattern 1”. Moreover, the Observation result is on record as “Clear solution” in data set [5] (200 mg/mL, water activity aw 0.2 (methanol/water 99:1)); “Clear solution” in data set [5] (200 mg/mL, water activity aw 0.5 (methanol/water 75:25)); “Clear solution” in data set [5] (200 mg/mL, water activity aw 0.8 (methanol/water 33:67)); “Clear solution” in data set [5] (1000 mg/mL, water activity aw 0.2 (methanol/water 99:1)); “Slurry” in [5] (1000 mg/mL, water activity aw 0.5 (methanol/water 75:25)); “Slurry” in data set [5] (1000 mg/mL, water activity aw 0.8 (methanol/water 33:67)). For the same molecule, the Observation result in [6] (Target pH 1.2, ca. 20 mg in 0.1 mL buffer) is “Clear solution”; in [6] (Target pH 4.5, ca. 20 mg in 0.1 mL buffer), “Clear solution”; in data set [6] (Target pH 6.8, ca. 20 mg in 0.1 mL buffer), “Clear solution”; in “1-week stability study” (40° C./75% RH (open), 1 week) it was “Light brown solids (BR8)”; in “1-week stability study” (80° C. (closed), 1 week) it was “Light brown solids (BR8)”; in the data set “1-week stability study” (setting [8]), “Faint beige solids (BE10)”. Besides, the Observation entry in the data set “1-week stability study” (Input) is recorded as “Faint beige solids (BE10)”. Further, the “HPLC Conc.” value in [6] (Target pH 1.2 (chloride buffer)) is greater than 105 mg/mL; in data set [6] (Target pH 4.5 (acetate buffer)) it was greater than 146 mg/mL; in [6] (Target pH 6.8 (phosphate buffer)), greater than 122 mg/mL. Moreover, the “HPLC Purity” value was 97.09 % area in data set [6] (Target pH 1.2, 24 h); 93.45 % area in data set [6] (Target pH 4.5, 24 h); 92.87 % area in [6] (Target pH 6.8, 24 h). Besides, the HPLC in “1-week stability study” (40° C./75% RH (open), 1 week) came out at 93.4 % area; in “1-week stability study” (80° C. (closed), 1 week), 92.8 % area; in the data set “1-week stability study” (setting [8]) it was 91.5 % area; in the data set “1-week stability study” (Input) it was 90.5 % area. Further, the “XRPD (pattern number)” value in “1-week stability study” (40° C./75% RH (open), 1 week) is 1,; in the data set “1-week stability study” (80° C. (closed), 1 week), 1,; in the data set “1-week stability study” (setting [8]) it was 1,; in the data set “1-week stability study” (Input), 1,. Also, in [7], the Solubility result was “poorly soluble at higher concentrations”.

On to `COc1ccc(C23C=CC(O)CC2N(C)CC3)cc1OC` (stereo not drawn) [mesembrenol], for which, on 5-HT transporter, the “activity in a 5-HT transporter binding assay” value is “potently active”. The “activity against PDE4B activity” value on PDE4B is listed as “potently active”.
